These results are taken from patent US20020010207A1, “Tropane analogs and methods for inhibition of monoamine transport” (priority 2000, published 2002).

Assay [1] concerns the target T1, dopamine transporter (DAT) (Macaca fascicularis, UniProt Q9GJT6).
T1 construct: The caudate-putamen will be dissected from coronal slices; from tissue; host or cells: cynomolgus monkey caudate-putamen membranes
Put plainly: Dopamine transporter assay: inhibition of 3H-WIN35,428 binding, caudate-putamen membranes. Set-up: species or system cynomolgus monkey (Macaca fascicularis). Conditions: for Selectivity DAT V. SERT: ratio of SERT IC50 to DAT IC50.

Assay [2] deals with T2, serotonin transporter (SERT) (Macaca fascicularis, UniProt A7KAX8).
T2 construct: The serotonin transporter is assayed in caudate-putamen membranes; from tissue; host or cells: cynomolgus monkey caudate-putamen membranes
As to the kind of experiment: Serotonin transporter assay: inhibition of 3H-citalopram binding, caudate-putamen membranes. Also noted: species or system cynomolgus monkey (Macaca fascicularis). How it is done: It is also important to measure the selectivity of the candidate of the dopamine compared with the serotonin transporter. The serotonin transporter is also detectable in the striatum, the brain region with the highest density of dopamine neurons and in brain regions surrounding the striatum. […] Therefore, a measure of probe affinity of the serotonin transport is conducted by assays paralleling the dopamine transporter assays.
Brain tissue from adult male and female cynomolgus monkeys (Macaca fascicularis) is stored at −85° C. in the primate -brain bank at the New England Regional Primate Research Center. […] Membranes are prepared as described previously. Briefly, the caudate-putamen is homogenized in 10 volumes (w/v) of ice-cold Tris.HCl buffer (50 mM, pH 7.4 at 4° C.) and centrifuged at […] for 20 min in the cold. The resulting pellet is suspended in 40 volumes of buffer, and the entire procedure is repeated twice.
The serotonin transporter is assayed in caudate-putamen membranes using conditions similar to those for the dopamine transporter. […] The 2 h incubation (0-4° C.) is initiated by addition of membranes and terminated by rapid filtration over Whatman GF/B glass fiber filters pre-soaked in 0.1% polyethyleneimine. The filters are washed twice with 5 ml Tris.HCl buffer (50 mM) and the remaining steps are carried out as described above. […] Specific binding is the difference between the two values.
Data are analyzed by EBDA and LIGAND computer software (Elsevier-Biosoft, UK) Final estimates of IC50 and nH values are computed by the EBDA program. Baseline values for the individual drugs are established by computer analysis using the baseline drugs as guide. The LIGAND program provides final parameter estimates of the novel compounds by iterative non-linear curve-fitting and evaluation of one- or two-component binding models.

Assay [3] deals with dopamine transporter (DAT). The following applies: potency ratio versus (1S)-(+)-cocaine; cited from earlier work.
The mark [4] stands for this setting: Table 1, inhibition of 3H-WIN35,428 binding, cynomolgus monkey caudate-putamen, read-out: IC50 (nM DAT).
Where [5] appears, read: Table 1, inhibition of 3H-citalopram binding, cynomolgus monkey caudate-putamen, read-out: IC50 (nM SERT).

Values joined by “and” are separate entries in the source; they are usually repeats but may differ in a detail not shown here. Equal values may be shown once. Read-outs that look alike come from different tables or passages of the source.

T2 sequence (A7KAX8 1-630): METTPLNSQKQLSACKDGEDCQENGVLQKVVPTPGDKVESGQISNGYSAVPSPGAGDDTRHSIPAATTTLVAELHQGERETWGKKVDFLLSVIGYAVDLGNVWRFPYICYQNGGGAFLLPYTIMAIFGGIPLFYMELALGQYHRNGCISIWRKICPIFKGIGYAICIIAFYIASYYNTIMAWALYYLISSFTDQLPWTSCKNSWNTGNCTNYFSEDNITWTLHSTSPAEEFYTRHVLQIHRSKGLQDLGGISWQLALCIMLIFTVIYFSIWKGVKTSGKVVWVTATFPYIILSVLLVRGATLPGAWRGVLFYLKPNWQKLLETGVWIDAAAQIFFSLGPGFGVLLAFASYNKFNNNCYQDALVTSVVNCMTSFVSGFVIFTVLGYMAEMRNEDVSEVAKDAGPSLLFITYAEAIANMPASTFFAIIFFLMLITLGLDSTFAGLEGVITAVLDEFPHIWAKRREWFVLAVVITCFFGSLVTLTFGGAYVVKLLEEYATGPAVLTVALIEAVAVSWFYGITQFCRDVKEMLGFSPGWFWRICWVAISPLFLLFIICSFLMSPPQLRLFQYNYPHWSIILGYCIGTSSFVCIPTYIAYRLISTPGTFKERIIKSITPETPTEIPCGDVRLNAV
T1 sequence (Q9GJT6 whole entry): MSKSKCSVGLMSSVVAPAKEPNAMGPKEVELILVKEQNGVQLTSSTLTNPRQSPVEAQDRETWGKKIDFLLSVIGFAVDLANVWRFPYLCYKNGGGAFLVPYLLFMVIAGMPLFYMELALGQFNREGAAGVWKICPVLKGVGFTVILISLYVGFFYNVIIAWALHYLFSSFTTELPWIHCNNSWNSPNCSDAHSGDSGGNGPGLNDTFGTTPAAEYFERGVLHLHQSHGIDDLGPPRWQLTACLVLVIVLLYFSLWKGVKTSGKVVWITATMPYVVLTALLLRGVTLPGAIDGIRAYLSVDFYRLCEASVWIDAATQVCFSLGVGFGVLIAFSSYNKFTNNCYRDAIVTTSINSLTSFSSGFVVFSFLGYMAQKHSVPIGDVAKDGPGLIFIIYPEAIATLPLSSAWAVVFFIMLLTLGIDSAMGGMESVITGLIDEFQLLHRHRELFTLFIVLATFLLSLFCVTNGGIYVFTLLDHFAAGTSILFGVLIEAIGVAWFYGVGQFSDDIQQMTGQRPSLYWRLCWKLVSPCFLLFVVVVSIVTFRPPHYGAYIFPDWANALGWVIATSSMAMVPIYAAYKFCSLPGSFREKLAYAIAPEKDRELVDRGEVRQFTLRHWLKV

Usually IC50 stands for the concentration at which inhibition is half-maximal. On to `COC(=O)C1=C(c2ccc(Cl)c(Cl)c2)CC2CC[C@H]1O2` [Compound 47e, (1R)-2-Carbomethoxy-3-(3,4-dichlorophenyl)-8-oxabicyclo(3.2.1)-2-octene], for which the half-inhibitory concentration (IC50) in assay [1] (read-out: IC50 (nM) DAT) came to 4.6 nM; in assay [2] (read-out: IC50 (nM) SERT) it was 2120 nM.
Regarding `COC(=O)C1=C(c2ccc(Cl)c(Cl)c2)CC2CCC1N2C` (stereo not shown) [Compound 48], the results for the concentration for half-maximal inhibition (IC50) in assay [1] and in assay [2] were 1.1 nM and 867 nM, respectively. The “Selectivity DAT V. SERT” value in assay [1] (Table 2, 2,3-enes) was 790.
With `COC(=O)C1C(c2ccc(Cl)c(Cl)c2)CC2CC(O)C1N2` (stereo not drawn) [Compound 10, 2β-Carbomethoxy-3-(3,4-dichlorophenyl)-7-hydroxy-8-azabicyclo(3.2.1)octane], the IC50 in assay [1] (setting [4]) was determined as 1 nM; in assay [2] (setting [5]) it was 1450 nM.
Consider `COC(=O)[C@H]1[C@@H](OC(=O)c2ccccc2)C[C@@H]2CC[C@H]1N2C` [(1R)-(−)-cocaine], for which the “binds at the dopamine transporter more potently than the unnatural isomer (1S)-(+)-cocaine” value in assay [3] was “about 200 fold”.
On to `COC(=O)C1C(c2ccc(Cl)c(Cl)c2)CC2CC(OC)C1N2` (stereo not drawn) [Compound 14, 2β-carbomethoxy-3β-(3,4-dichlorophenyl)-7-methoxy-8-azabicyclo(3.2.1)octane], for which the half-maximal inhibitory concentration (IC50) was found to be 86 nM in assay [1] (setting [4]) and 884 nM in assay [2] (setting [5]). Further, the “Selectivity DAT V. SERT” value in assay [1] (Table 1) was found to be 10.
With `COC(=O)C1=C(c2ccc(Cl)c(Cl)c2)CC2CC[C@@H]1O2` [Compound 47f, (1S)-2-Carbomethoxy-3-(3,4-dichlorophenyl)-8-oxabicyclo(3.2.1)-2-octene], in assay [1] (Table 2, 2,3-enes), the “Selectivity DAT V. SERT” value was 800 and 802. Besides, the figures for the half-maximal inhibitory concentration (IC50) in assay [1] (read-out: IC50 (nM) DAT) and in assay [2] (read-out: IC50 (nM) SERT) were 58.2 nM and 46700 nM, respectively.
On to `COC(=O)C1C(c2ccc(Cl)c(Cl)c2)CC2CC(OC)C1N2` (stereo not drawn) [Compound 15, 2β-Carbomethoxy-3-(3,4-dichlorophenyl)-7-methoxy-8-azabicyclo(3.2.1)octane], for which the concentration for half-maximal inhibition (IC50) in assay [1] (setting [4]) amounted to 92 nM; in assay [2] (setting [5]), 5220 nM. In assay [1] (Table 1), the “Selectivity DAT V. SERT” value stood at 57.
As for `COC(=O)C1C(c2ccc(Cl)c(Cl)c2)CC2CC(O)C1N2C` (stereo not shown) [Compound 11], the concentration for half-maximal inhibition (IC50) in assay [1] (setting [4]) turned out to be 1 nM; in assay [2] (setting [5]), 20 nM. Also, the “Selectivity DAT V. SERT” value in assay [1] (Table 1) was found to be 20.
In assay [1], `COC(=O)[C@H]1[C@@H](c2ccc(Cl)c(Cl)c2)C[C@@H]2CC[C@H]1N2C` [(1R)-3β-(3,4-di-chlorophenyl)-tropane-2β-carboxylic acid methyl ester, reference compound] came in with an IC50 of 1.09 nM. The “Selectivity DAT V. SERT” value in assay [1] (Table 1) turned out to be 2.
